Data as given in US20150086719A1, “USE OF […] MARINE WOODBORERS” (Janssen Pharmaceutica, NV, priority 2012, published 2015).

How the values were obtained:
[1] = test system: Limnoria lignorum; assay: Marine field test according to EN 275: rating of attack on tralopyril impregnated Scots pine sapwood by Limnoria l.; format: in vivo; set-up: key to Rating of attack by Limnoria l. 1st year / Rating of attack by Limnoria l. 2nd year: 0: No destruction No visible tunnel or destruction by marine organisms; Little destruction Tunnels are one or a few number and up to cover 15% of total sample area; Moderate destruction Tunnels cover between 15-25% of total sample area; 3: Violent destruction Tunnels cover between 25-50% of total sample area; 4: Fully destruction Tunnels covered more than 50% of total sample area; —: some samples were destroyed the second year (indicated by ‘-’ in Table 1); conditions: for Rating of attack by Limnoria l. 1st year, average / Rating of attack by Limnoria l. 2nd year, average: average of samples, scale 0-4; for Rating of attack by Limnoria l. 1st year, average / Rating of attack by Limnoria l. 1st year: 1 year in seawater; for Rating of attack by Limnoria l. 2nd year, average / Rating of attack by Limnoria l. 2nd year: 2 years in seawater; for Rating of attack by Limnoria l. 1st year / Rating of attack by Limnoria l. 2nd year: single wood samples
Description: (§1) The effectiveness to reduce the presence of marine woodborers in wood situated in a marine environment was determined using the guidelines and recommendations in EN 275: 1992—wood preservatives—determination of the protective effectiveness against marine woodborers.
(§2) Wood Material The wood material used for both control groups (untreated) and test groups was Scots pine sapwood (Pinus sylvestris L.). The size of the wood samples was 25×70×200 mm and all pine specimens were pure sapwood and free from defects.
Full cell Impregnation Procedure: • place specimens into a treatments vessel (e.g. an exsiccator) • pull vacuum until 7 hPa is reached and hold said vacuum for 15 minutes • flood specimens under vacuum with treatment solution until the specimens are completely immersed • release vacuum and make sure that samples stay completely immersed while ambient pressure presses treatment solution into the specimens • leave specimens for further 2 hours immersed in the treatment solution • subsequently remove the specimens from the treatment solution, drain drip off solution for some minutes and place the specimens container on inert supports. • keep specimens in the closed container for 3 days (over weekend) for fixation, subsequently open the lid every day a bit more and remove it completely after 4 days • dry specimens in the open container at room temperature further 3 days
1a) Water Dilutable Formulation (Emulsifiable Concentrate)
Tralopyril dissolved in methanol (1600 ppm and 400 ppm).
1a) water dilutable formulation : 228 g and 846 g a.i./ m^3
1b) solvent based formulation : 1087 g a.i./ m^3
Bay (Gullmar fjord) outside the Kristineberg Marine Research Station, 100 km north of Gothenburg, Sweden.
Temperature and salinity of water: Temperature varies between (18-22)° C. in the summer and −1.5° C. in mid-winter. Salinity varies between 26 g/kg and 34 g/kg. Good oxygen level due to a strong water flow.
Borer activity: there is borer activity all around the year. […] The criterion for failure due to Teredo attack (tunnels covering more than 50% of the specimen area as it appears on the X-ray film) is often fulfilled already within 6 months for untreated control specimens. Maximum “service” life of untreated controls is approximately 1.5 years, after which the samples are often broken to pieces by the autumn storms.
Specimens were hung on nylon-bars (diameter =24 mm) of two ladder-like rigs placed on the sea bottom at 6±0.4 m depth at low tide. The test rigs have heavy concrete foundations and each rig was kept upright by a 50 cm diameter buoy. As a result of the arrangement, the specimens are located at depths varying from 4 m to 6.5 m below water surface during the exposure period.
Gribbles: Limnoria lignorum (present but not very active)

[2] = test system: Teredo navalis; assay: Marine field test according to EN 275: rating of attack on tralopyril impregnated Scots pine sapwood by T. navalis; format: in vivo; set-up: key: 0: No destruction No visible tunnel or destruction by marine organisms; Little destruction Tunnels are one or a few number and up to cover 15% of total sample area; Moderate destruction Tunnels cover between 15-25% of total sample area; 3: Violent destruction Tunnels cover between 25-50% of total sample area; 4: Fully destruction Tunnels covered more than 50% of total sample area; —: some samples were destroyed the second year (indicated by ‘-’ in Table 1); conditions: single wood samples; tralopyril retention 1087 g/m^3 (solvent based formulation, methanol); 1 year in seawater
Description: as §1, §2
Full cell Impregnation Procedure: • place specimens into a treatments vessel (e.g. an exsiccator) • pull vacuum until 7 hPa is reached and hold said vacuum for 15 minutes • flood specimens under vacuum with treatment solution until the specimens are completely immersed • release vacuum and make sure that samples stay completely immersed while ambient pressure presses treatment solution into the specimens • leave specimens for further 2 hours immersed in the treatment solution • subsequently remove the specimens from the treatment solution, drain drip off solution for some minutes and place the specimens container on inert supports. • keep specimens in the closed container for 3 days (over weekend) for fixation, subsequently open the lid every day a bit more and remove it completely after 4 days • dry specimens in the open container at room temperature further 3 days […]

[3] = tralopyril retention 1087 g/m^3
[4] = tralopyril retention 228 g/m^3 (water dilutable formulation)
[5] = tralopyril retention 846 g/m^3 (water dilutable formulation)
[6] = tralopyril retention 1087 g/m^3 (solvent based formulation, methanol)

SMILES: N#Cc1c(-c2ccc(Cl)cc2)[nH]c(C(F)(F)F)c1Br [tralopyril, 4-bromo-2-(4-chlorophenyl)-5-(trifluoromethyl)-1H-pyrrole-3-carbonitrile]
- Rating of attack by Limnoria l. 1st year, average ([1]; tralopyril retention 228 g/m^3): 0.0
- Rating of attack by Limnoria l. 2nd year, average ([1]; tralopyril retention 228 g/m^3): 0.0
- Rating of attack by Limnoria l. 1st year, average ([1]; tralopyril retention 846 g/m^3): 0.0
- Rating of attack by Limnoria l. 2nd year, average ([1]; tralopyril retention 846 g/m^3): 0.0
- Rating of attack by Limnoria l. 1st year, average [1, 3]: 0.0
- Rating of attack by Limnoria l. 2nd year, average [1, 3]: 0.0
- Rating of attack by Limnoria l. 1st year [1, 4]: 0
- Rating of attack by Limnoria l. 2nd year [1, 4]: 0
- Rating of attack by Limnoria l. 1st year [1, 5]: 0
- Rating of attack by Limnoria l. 2nd year [1, 5]: 0
- Rating of attack by Limnoria l. 1st year [1, 6]: 0
- Rating of attack by Limnoria l. 2nd year [1, 6]: 0
- Rating of attack by T. navalis 1st year [2]: 0
